Experiments:
NZMp2 = test: Human tumour xenograft; type: in vivo; parameters: key to Activity: Active: NCI Criterion for activity tumour volume T/C ≦ 40%; Inactive: NCI Criterion for activity tumour volume T/C ≦ 40%; conditions: NZMp2, Melanoma
Method: (§1) The compound of Formula II was evaluated in a number of xenografts using cell lines derived from cervical, endometrial, lung and colon carcinomas, leukaemia and melanoma (Table 3). These studies indicate that the compound according to the present invention has significant activity in xenografts.

NZM10 = test: Human tumour xenograft; type: in vivo; parameters: key to Activity: Active: NCI Criterion for activity tumour volume T/C ≦ 40%; Inactive: NCI Criterion for activity tumour volume T/C ≦ 40%; conditions: NZM10, Melanoma
Method: as §1

NZM3 = test: Human tumour xenograft; type: in vivo; parameters: key to Activity: Active: NCI Criterion for activity tumour volume T/C ≦ 40%; Inactive: NCI Criterion for activity tumour volume T/C ≦ 40%; conditions: NZM3, Melanoma
Method: as §1

NZM4 = test: Human tumour xenograft; type: in vivo; parameters: key to Activity: Active: NCI Criterion for activity tumour volume T/C ≦ 40%; Inactive: NCI Criterion for activity tumour volume T/C ≦ 40%; conditions: NZM4, Melanoma
Method: as §1

HCT116 = test: Human tumour xenograft; type: in vivo; parameters: key to Activity: Active: NCI Criterion for activity tumour volume T/C ≦ 40%; Inactive: NCI Criterion for activity tumour volume T/C ≦ 40%; conditions: HCT116, Colon
Method: as §1

H460 = test: Human tumour xenograft; type: in vivo; parameters: key to Activity: Active: NCI Criterion for activity tumour volume T/C ≦ 40%; Inactive: NCI Criterion for activity tumour volume T/C ≦ 40%; conditions: H460, Lung
Method: as §1

NZEN1 = test: Human tumour xenograft; type: in vivo; parameters: key to Activity: Active: NCI Criterion for activity tumour volume T/C ≦ 40%; Inactive: NCI Criterion for activity tumour volume T/C ≦ 40%; conditions: NZEN1, Endometrium
Method: as §1

Jurkat LA = test: Human tumour xenograft; type: in vivo; parameters: key to Activity: Active: NCI Criterion for activity tumour volume T/C ≦ 40%; Inactive: NCI Criterion for activity tumour volume T/C ≦ 40%; conditions: Leukaemia
Method: as §1

NZMp1 = test: Human tumour xenograft; type: in vivo; parameters: key to Activity: Active: NCI Criterion for activity tumour volume T/C ≦ 40%; Inactive: NCI Criterion for activity tumour volume T/C ≦ 40%; conditions: NZMp1, Melanoma
Method: as §1

NZC1 = test: Human tumour xenograft; type: in vivo; parameters: key to Activity: Active: NCI Criterion for activity tumour volume T/C ≦ 40%; Inactive: NCI Criterion for activity tumour volume T/C ≦ 40%; conditions: NZC1, Cervix
Method: as §1

CHrC5 = test: In vitro susceptibility to multidrug resistance, continuous exposure IC50; type: cell-based, Chinese Hamster
Method: (§2) Multidrug resistance mediated by p-glycoprotein and related transport proteins is an important means by which cancer cells evade cytotoxic drugs. […] IC50 values of several drugs were measured in continuous exposure assays in these two cell lines. The resistance factor was calculated as the ratio of these values. High values indicate high susceptibility to resistance.

AuxB1 = test: as above; type: cell-based, Chinese Hamster; conditions: Cricetulus griseus, AuxB1 (no multidrug resistance)
Method: as §2

[1] = tested on: survivin in HCT116 (TP53 wild type); test: Inhibition of survivin production, western blotting; type: cell-based, human; conditions: various concentrations, 24 hours
Method: Survivin is a protein that is expressed selectively in many types of cancer cells and which is known to be associated with resistance to apoptosis (Zaffaroni N and Daidone M G. Survivin expression and resistance to anticancer treatments: perspectives for new therapeutic interventions. Drug Resistance Updates: Reviews and Commentaries in Antimicrobial and Anticancer Chemotherapy. 2002 5(2):65-72). […] Extracts were prepared, proteins were separated by electrophoresis and survivin expression was determined by western blotting.

[2] = P53 not known, tumour volume T/C

Cc1cccc2cc3c(=O)n(C)cc(C(=O)NCCN(C)C)c3nc12 [Formula II, N-[2-(dimethylamino)ethyl]-2,6 dimethyl-1-oxo-1,2-dihydrobenzo[b]-1,6-naphthyridine-4-carboxamide]
Activity (NZMp2): Active | % control (NZMp2; tumour volume T/C): 22% | Activity (NZM10): Active | % control (NZM10; P53 W.T., tumour volume T/C): 30% | Activity (NZM3): Active | % control (NZM3; P53 W.T., tumour volume T/C): 38% | Activity (NZM4): Inactive | % control (NZM4; P53 Mutant, tumour volume T/C): 90% | Activity (HCT116): Inactive | % control (HCT116; P53 W.T., tumour volume T/C): 70% | Activity (H460): Active | % control (H460; P53 W.T., tumour volume T/C): 38% | Activity (NZEN1): Inactive | % control (NZEN1; [2]): 50% | Activity (Jurkat LA): Active | % control (Jurkat LA; P53 Null, tumour volume T/C): 28% | Activity (NZMp1): Active | % control (NZMp1; [2]): <10% | Activity (NZC1): Active | % control (NZC1; [2]): 38% | IC50 (CHrC5; Cricetulus griseus, CHrC5 (multidrug resistant), continuous exposure): 5.2 nM | Resistance factor (CHrC5; ratio of IC50 values in CHrC5 and AuxB1): 1.5 | IC50 (AuxB1): 3.5 nM | survivin expression [1]: suppress survivin production
